The values that follow come from patent US11384067B2, “Pyrazole n-linked carbamoyl cyclohexyl acids as LPA antagonists” (BRISTOL-MYERS SQUIBB COMPANY, priority 2017, dated 2022).

This test addresses T1, human LPA1 (Homo sapiens, UniProt Q92633).
T1 construct: expressed in transfected cells; host or cells: Chinese hamster ovary (CHO) cells
As to the kind of experiment: LPA1 functional antagonist assay (LPA-induced calcium flux). The test is classed as cell-based. The conditions noted are these: CHO cells overexpressing human LPA1, 10 nM LPA, read-out: hLPA1 IC50. On the procedure: The effectiveness of compounds of the present invention as LPA1 inhibitors can be determined in an LPA1 functional antagonist assay as follows:
The cells were then equilibrated to room temperature for 30 minutes before the assay. […] IC50 values were determined by fitting data to a 4-parameter logistic equation (GraphPad Prism, San Diego Calif.).

T1 sequence (Q92633 whole entry): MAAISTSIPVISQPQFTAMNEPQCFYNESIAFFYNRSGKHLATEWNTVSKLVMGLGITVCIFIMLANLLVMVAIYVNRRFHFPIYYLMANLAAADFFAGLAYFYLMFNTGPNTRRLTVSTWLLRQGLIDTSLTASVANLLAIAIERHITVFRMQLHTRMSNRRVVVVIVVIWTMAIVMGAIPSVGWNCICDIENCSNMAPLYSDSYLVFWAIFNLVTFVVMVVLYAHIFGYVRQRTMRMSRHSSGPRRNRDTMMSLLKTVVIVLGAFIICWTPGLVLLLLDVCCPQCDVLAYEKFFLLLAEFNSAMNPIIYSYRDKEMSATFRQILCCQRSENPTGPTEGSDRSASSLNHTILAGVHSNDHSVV

The IC50 is the concentration needed to halve the response being measured. On to `CCCCOC(=O)NCc1c(-c2ccc(O[C@H]3CCC[C@H](C(=O)O)C3)c(C)n2)cnn1C` [Example 1, (1S,3S)-3-((6-(5-(((Butoxycarbonyl)amino)methyl)-1-methyl-1H-pyrazol-4-yl)-2-methylpyridin-3-yl)oxy)cyclohexanecarboxylic Acid], for which the IC50 is 28 nM.

`CCCCOC(=O)N(C)Cc1c(-c2ccc(O[C@H]3CCC[C@H](C(=O)O)C3)c(C)n2)cnn1C` [Example 2, (1S,3S)-3-((6-(5-(((Butoxycarbonyl)(methyl)amino)methyl)-1-methyl-1H-pyrazol-4-yl)-2-methylpyridin-3-yl)oxy)cyclohexanecarboxylic Acid]: the IC50 amounted to 49 nM.

On to `Cc1nc(-c2cnn(C)c2CNC(=O)OCc2cccc(F)c2)ccc1O[C@H]1CCC[C@H](C(=O)O)C1` [Example 4, (1S,3S)-3-((6-(5-(((((3-fluorobenzyl)oxy)carbonyl)amino)methyl)-1-methyl-1H-pyrazol-4-yl)-2-methyl-pyridin-3-yl)oxy)cyclohexane-1-carboxylic acid], for which the IC50 turned out to be 12 nM.

As to `Cc1nc(-c2cnn(C)c2CNC(=O)O[C@H](C)c2ccccc2)ccc1O[C@H]1CCC[C@H](C(=O)O)C1` [Example 5, (1S,3S)-3-((2-methyl-6-(1-methyl-5-(((((R)-1-phenylethoxy)carbonyl)amino)methyl)-1H-pyrazol-4-yl)pyridin-3-yl)oxy)cyclohexane-1-carboxylic acid], the IC50 came out at 11 nM.

As to `Cc1nc(-c2cnn(C)c2CNC(=O)OCc2cc(F)cc(F)c2)ccc1O[C@H]1CCC[C@H](C(=O)O)C1` [Example 6, (1S,3S)-3-((6-(5-(((((3,5-difluoro-benzyl)oxy)carbonyl)amino)methyl)-1-methyl-1H-pyrazol-4-yl)-2-methyl-pyridin-3-yl)oxy)cyclohexane-1-carboxylic acid], the IC50 amounted to 7 nM.

With `Cc1cccc(COC(=O)NCc2c(-c3ccc(O[C@H]4CCC[C@H](C(=O)O)C4)cn3)cnn2C)c1` [Example 7, (1S,3S)-3-((6-(1-methyl-5-(((((3-methylbenzyl)oxy)carbonyl)amino)methyl)-1H-pyrazol-4-yl)pyridin-3-yl)oxy)cyclohexane-1-carboxylic acid], the IC50 stood at 280 nM.

In the case of `Cn1ncc(-c2ccc(O[C@H]3CCC[C@H](C(=O)O)C3)cn2)c1CNC(=O)OCc1cc(F)cc(F)c1` [Example 8, (1S,3S)-3-((6-(5-(((((3,5-difluoro-benzyl)oxy)carbonyl)amino)methyl)-1-methyl-1H-pyrazol-4-yl)pyridin-3-yl)oxy)cyclohexane-1-carboxylic acid], the IC50 was 111 nM.

For `Cn1ncc(-c2ccc(O[C@H]3CCC[C@H](C(=O)O)C3)cn2)c1CNC(=O)OCc1cc(F)ccc1F` [Example 9, (1S,3S)-3-((6-(5-(((((2,5-difluoro-benzyl)oxy)carbonyl)amino)methyl)-1-methyl-1H-pyrazol-4-yl)pyridin-3-yl)oxy)cyclohexane-1-carboxylic acid], the IC50 stood at 71 nM.

As for `CN(Cc1c(-c2ccc(O[C@H]3CCC[C@H](C(=O)O)C3)cn2)cnn1C)C(=O)OCc1cc(F)ccc1F` [Example 10, (1S,3S)-3-((6-(5-(((((2,5-difluoro-benzyl)oxy)carbonyl)(methyl)amino)methyl)-1-methyl-1H-pyrazol-4-yl)pyridin-3-yl)oxy)cyclohexane-1-carboxylic acid], the IC50 worked out at 1660 nM.

In the case of `CCCCCOC(=O)NCc1c(-c2ccc(O[C@H]3CCC[C@H](C(=O)O)C3)cn2)cnn1C` [Example 12, (1S,3S)-3-((6-(1-methyl-5-((((pentyl-oxy)carbonyl)amino)methyl)-1H-pyrazol-4-yl)pyridin-3-yl)oxy)cyclohexane-1-carboxylic acid], the IC50 turned out to be 16 nM.

In the case of `CCCCCCOC(=O)NCc1c(-c2ccc(O[C@H]3CCC[C@H](C(=O)O)C3)cn2)cnn1C` [Example 13, (1S,3S)-3-((6-(5-((((hexyloxy)carbonyl)amino)methyl)-1-methyl-1H-pyrazol-4-yl)pyridin-3-yl)oxy)cyclohexane-1-carboxylic acid], the IC50 stood at 834 nM.

As to `Cn1ncc(-c2ccc(O[C@H]3CCC[C@H](C(=O)O)C3)cn2)c1CNC(=O)OCC(C)(C)C` [Example 14, (1S,3S)-3-((6-(1-methyl-5-((((neo-pentyloxy)carbonyl)amino)methyl)-1H-pyrazol-4-yl)pyridin-3-yl)oxy)cyclohexane-carboxylic acid], the half-inhibitory concentration (IC50) is 207 nM.

For the molecule `Cc1cccc(COC(=O)NCc2c(-c3ccc(O[C@H]4CCC[C@H](C(=O)O)C4)c(C)n3)cnn2C)c1` [Example 15, (1S,3S)-3-((2-methyl-6-(1-methyl-5-(((((3-methylbenzyl)oxy)carbonyl)amino)methyl)-1H-pyrazol-4-yl)pyridin-3-yl)oxy)cyclohexane-1-carboxylic acid], the IC50 came out at 2 nM.

In the case of `C[C@@H](OC(=O)NCc1c(-c2ccc(O[C@H]3CCC[C@H](C(=O)O)C3)cn2)cnn1C)c1ccccc1` [Example 16, (1S,3S)-3-((6-(1-methyl-5-(((((R)-1-phenylethoxy)carbonyl)amino)methyl)-1H-pyrazol-4-yl)pyridin-3-yl)oxy)cyclohexane-1-carboxylic acid], the IC50 was found to be 23 nM.

`CC(C)COC(=O)NCc1c(-c2ccc(O[C@H]3CCC[C@H](C(=O)O)C3)cn2)cnn1C` [Example 17, (1S,3S)-3-((6-(5-(((isobutoxy-carbonyl)amino)methyl)-1-methyl-1H-pyrazol-4-yl)pyridin-3-yl)oxy)cyclohexane-1-carboxylic acid]: the IC50 was found to be 1640 nM.

As to `CCCCOC(=O)NCc1c(-c2ccc(O[C@H]3CCC[C@H](C(=O)O)C3)cn2)cnn1C` [Example 18, (1S,3S)-3-((6-(5-(((butoxycarbonyl)amino)methyl)-1-methyl-1H-pyrazol-4-yl)pyridin-3-yl)oxy)cyclohexane-1-carboxylic acid], the IC50 amounted to 325 nM.

Take `CCCCCOC(=O)NCc1c(-c2ccc(O[C@H]3CCC[C@H](C(=O)O)C3)c(C)n2)cnn1C` [Example 19, (1S,3S)-3-((2-methyl-6-(1-methyl-5-((((pentyloxy)carbonyl)amino)methyl)-1H-pyrazol-4-yl)pyridin-3-yl)oxy)cyclohexane-1-carboxylic acid]: the half-maximal inhibitory concentration (IC50) amounted to 4 nM.

As for `CCCOC(=O)NCc1c(-c2ccc(O[C@H]3CCC[C@H](C(=O)O)C3)c(C)n2)cnn1C` [Example 20, (1S,3S)-3-((2-methyl-6-(1-methyl-5-(((propoxycarbonyl)amino)methyl)-1H-pyrazol-4-yl)pyridin-3-yl)oxy)cyclohexane-1-carboxylic acid], the IC50 amounted to 275 nM.

Take `Cc1cccc(COC(=O)NCc2c(-c3ccc(O[C@H]4CCC[C@H](C(=O)O)C4)cn3)cnn2C)c1` [Example 21, (1S,3S)-3-((6-(1-methyl-5-(((((3-methylbenzyl)oxy)carbonyl)amino)methyl)-1H-pyrazol-4-yl)pyridin-3-yl)oxy)cyclohexane-1-carboxylic acid]: the IC50 amounted to 182 nM.

In the case of `Cn1ncc(-c2ccc(O[C@H]3CCC[C@H](C(=O)O)C3)cn2)c1CNC(=O)OCCc1ccccc1` [Example 22, (1S,3S)-3-((6-(1-methyl-5-(((phen-ethoxycarbonyl)amino)methyl)-1H-pyrazol-4-yl)pyridin-3-yl)oxy)cyclohexane-1-carboxylic acid], the IC50 turned out to be 355 nM.

`CCCCOC(=O)N(C)Cc1c(-c2ccc(O[C@H]3CCC[C@H](C(=O)O)C3)cn2)cnn1C` [Example 23, (1S,3S)-3-((6-(5-(((butoxycarbonyl)(methyl)amino)methyl)-1-methyl-1H-pyrazol-4-yl)pyridin-3-yl)oxy)cyclohexane-1-carboxylic acid]: the IC50 came out at 243 nM.

In the case of `CN(Cc1c(-c2ccc(O[C@H]3CCC[C@H](C(=O)O)C3)cn2)cnn1C)C(=O)OCc1ccccc1` [Example 24, (1S,3S)-3-((6-(5-((((benzyloxy)carbonyl)(methyl)amino)methyl)-1-methyl-1H-pyrazol-4-yl)pyridin-3-yl)oxy)cyclohexane-1-carboxylic acid], the IC50 came to 204 nM.

In the case of `Cn1ncc(-c2ccc(O[C@H]3CCC[C@H](C(=O)O)C3)cn2)c1CNC(=O)OCc1ccccc1` [Example 25, (1S,3S)-3-((6-(5-((((benzyloxy)carbonyl)amino)methyl)-1-methyl-1H-pyrazol-4-yl)pyridin-3-yl)oxy)cyclohexane-1-carboxylic acid], the IC50 was found to be 20 nM.

As to `CCCCCCOC(=O)NCc1c(-c2ccc(O[C@H]3CCC[C@H](C(=O)O)C3)c(C)n2)cnn1C` [Example 26], the IC50 was determined as 14 nM.

`Cc1nc(-c2cnn(C)c2CNC(=O)OCC(C)(C)C)ccc1O[C@H]1CCC[C@H](C(=O)O)C1` [Example 27]: the IC50 turned out to be 22 nM.

Regarding `Cc1nc(-c2cnn(C)c2CNC(=O)OCC(C)C)ccc1O[C@H]1CCC[C@H](C(=O)O)C1` [Example 28, (1S,3S)-3-((6-(5-(((isobutoxy-carbonyl)amino)methyl)-1-methyl-1H-pyrazol-4-yl)-2-methylpyridin-3-yl)oxy)cyclohexane-1-carboxylic acid], the IC50 is 29 nM.

On to `Cc1nc(-c2cnn(C)c2CNC(=O)OCC(C)C)cnc1O[C@H]1CCC[C@H](C(=O)O)C1` [Example 29, (1S,3S)-3-((5-(5-(((isobutoxy-carbonyl)amino)methyl)-1-methyl-1H-pyrazol-4-yl)-3-methylpyrazin-2-yl)oxy)cyclohexane-1-carboxylic acid], for which the IC50 came out at 1200 nM.

For `CCCCOC(=O)NCc1c(-c2cnc(O[C@H]3CCC[C@H](C(=O)O)C3)c(C)n2)cnn1C` [Example 30, (1S,3S)-3-((5-(5-(((butoxycarbonyl)amino)methyl)-1-methyl-1H-pyrazol-4-yl)-3-methylpyrazin-2-yl)oxy)cyclohexane-1-carboxylic acid], the IC50 came out at 283 nM.

In the case of `Cc1nc(-c2cnn(C)c2CNC(=O)OCc2ccccc2)cnc1O[C@H]1CCC[C@H](C(=O)O)C1` [Example 31, (1S,3S)-3-((5-(5-((((benzyloxy)carbonyl)amino)methyl)-1-methyl-1H-pyrazol-4-yl)-3-methylpyrazin-2-yl)oxy)cyclohexane-1-carboxylic acid], the IC50 turned out to be 29 nM.
